Reference: patent US20250026741A1, “INHIBITORS OF THE ONCOGENIC SHP2 PHOSPHATASE AND USES THEREOF” (Sanford Burnham Prebys Medical Discovery Institute, priority 2021, published 2025)

Legend:
[1] = molecular target: full-length SHP2-E76K oncogenic mutant (Homo sapiens (Human), UniProt Q06124, E76K); test: DiFMUP fluorescence intensity phosphatase inhibition assay, SHP2-E76K; assay type: biochemical; conditions: DiFMUP at Km (20 μM), 10-point dose-response; read-out: SHP2-E76K IC50
From the text: (§1) To test the synthesized compounds for their potential to inhibit SHP2 activity, a fluorescence intensity-based assay using 6,8-difluoro-4-methylumbelliferyl phosphate (DiFMUP) as the substrate was adapted for three recombinant SHP2 constructs: 1) the SHP2 catalytic domain (SHP2cat; residues 248-527), 2) the full-length SHP2-E76K oncogenic mutant, and 3) the full-length SHP2 wild-type (SHP2-WT). The recombinant SHP2 proteins were expressed and purified. A dually phosphorylated peptide derived from the insulin receptor substrate 1 (IRS-1) served as a surrogate binding protein and was used to activate SHP2-WT. […] Michaelis-Menten experiments to determine the DiFMUP Michaelis-Menten constant (Kmn) for each SHP2 construct were performed and yielded the following values: SHP2-WT, Km=60 μM; SHP2-E76K, Km=20 μM; SHP2cat, Km=20 μM. Relative maximum rates (Vmax) of the DiFMUP reactions were as follows: SHP2-WT, Vmax=871 AFU/min; SHP2-E76K, Vmax, =2730 AFU/min; SHP2cat, Vmax=2912 AFU/min. IC50 values for each compound were determined from initial rates in 10-point dose-response assays using DiFMUP at a concentration corresponding to its Km value for the respective SHP2 construct.
(§2) SHP2 inhibitors were tested at room temperature (RT) in a 384-well plate format standard phosphatase fluorescence intensity assay using DiFMUP (Invitrogen/Thermo Fisher Scientific, Carlsbad, CA) as a substrate and a total reaction volume of 25 μL. SHP2 inhibitors or vehicle (DMSO) were spotted in triplicate into a black Greiner FLUOTRAC™ 200 384-well microplate (#781076, Greiner) for a 10-point dose-response assay using an Echo®555 Liquid Handler (Labcyte, Inc., San Jose, CA). PTP working solutions were prepared at a 0.625 nM concentration (for a final concentration of 0.5 nM) in buffer containing 50 mM Bis-Tris pH 6.0, 50 mM NaCl, 5 mM DTT, and 0.01% Tween® 20. Prior to the assay, a dually phosphorylated insulin receptor substrate 1 (IRS-1) peptide [625 nM (500 nMfinal) (30)] was added to full-length WT SHP2 working solutions and incubated for 20 min. DiFMUP working solutions at 5× final concentration were prepared in 50 mM Bis-Tris pH 6.0, 50 mMNaCl, and 0.01% Tween 20. 20 μL of PTP working solution was dispensed into the microplate and incubated with inhibitor for 20 min at RT. […] The reaction was initiated by addition of 5 μL DiFMUP working solutions. Fluorescence intensity was measured in kinetic mode (every minute for 7 or 10 min) using a Tecan Spark® Multimode Microplate Reader (Tecan, Groedig, Austria) with an excitation wavelength of 360 nm and an emission wavelength of 460 nm. The initial rates were determined from the linear progression curves of the PTP reaction. The nonenzymatic hydrolysis of the substrate was corrected by using a control without addition of enzyme. IC50 values were calculated from the corrected initial rates by nonlinear regression using the program GraphPad Prism (GraphPad Software, Inc., San Diego, CA) Version 8. Dose-response inhibition assays of SHP2cat using the substrate OMFP were performed similarly as described above for DiFMUP. OMFP was used at a concentration corresponding to its Km value for SHP2cat (50 μM final). Fluorescence intensity was measured in kinetic mode (every minute for 10 min) using a Tecan Spark Multimode Microplate Reader with an excitation wavelength of 485 nm and an emission wavelength of 535 nm. Initial rates were determined and IC50 vales calculated as described above.

[2] = molecular target: full-length SHP2 wild-type (SHP2-WT) (Homo sapiens (Human), UniProt Q06124); test: DiFMUP fluorescence intensity phosphatase inhibition assay, SHP2-WT activated with IRS-1 peptide; assay type: biochemical; conditions: DiFMUP at Km (60 μM), IRS-1 peptide activated
Sequence of full-length SHP2 wild-type (SHP2-WT) (Q06124 whole entry, other chains not shown): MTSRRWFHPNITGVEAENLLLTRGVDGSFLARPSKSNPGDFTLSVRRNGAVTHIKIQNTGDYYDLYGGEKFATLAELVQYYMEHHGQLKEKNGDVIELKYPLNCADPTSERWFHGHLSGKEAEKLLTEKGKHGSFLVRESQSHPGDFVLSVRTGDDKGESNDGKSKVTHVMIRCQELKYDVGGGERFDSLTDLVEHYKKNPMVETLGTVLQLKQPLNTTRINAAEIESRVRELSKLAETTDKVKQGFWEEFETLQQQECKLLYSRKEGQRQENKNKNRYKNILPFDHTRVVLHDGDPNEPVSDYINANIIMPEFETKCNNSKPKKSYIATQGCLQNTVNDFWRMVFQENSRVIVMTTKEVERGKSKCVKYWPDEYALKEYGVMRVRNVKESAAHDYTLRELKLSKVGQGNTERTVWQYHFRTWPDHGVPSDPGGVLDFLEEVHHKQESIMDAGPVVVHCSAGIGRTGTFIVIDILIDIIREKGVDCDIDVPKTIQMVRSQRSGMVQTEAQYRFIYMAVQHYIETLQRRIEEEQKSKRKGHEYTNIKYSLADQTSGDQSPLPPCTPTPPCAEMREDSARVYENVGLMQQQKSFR
From the text: as §1, §2

Sequence of full-length SHP2-E76K oncogenic mutant (Q06124 whole entry E76K, the tested form may be a part): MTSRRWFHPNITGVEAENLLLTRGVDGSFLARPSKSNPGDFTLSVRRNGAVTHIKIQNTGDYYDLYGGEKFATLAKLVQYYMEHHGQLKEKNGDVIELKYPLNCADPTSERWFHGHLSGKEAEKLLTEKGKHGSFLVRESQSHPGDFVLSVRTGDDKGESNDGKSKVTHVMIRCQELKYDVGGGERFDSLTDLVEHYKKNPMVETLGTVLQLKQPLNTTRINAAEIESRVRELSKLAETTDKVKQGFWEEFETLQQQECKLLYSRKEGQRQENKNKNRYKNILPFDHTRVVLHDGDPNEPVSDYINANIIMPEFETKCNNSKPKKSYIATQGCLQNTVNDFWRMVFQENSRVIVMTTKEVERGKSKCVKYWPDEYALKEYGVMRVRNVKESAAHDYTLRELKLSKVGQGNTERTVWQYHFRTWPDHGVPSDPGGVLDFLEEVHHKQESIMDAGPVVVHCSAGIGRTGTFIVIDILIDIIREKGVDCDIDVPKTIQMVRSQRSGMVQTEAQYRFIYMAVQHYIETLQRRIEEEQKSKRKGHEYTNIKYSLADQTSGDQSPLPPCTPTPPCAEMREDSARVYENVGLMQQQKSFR

Structure (SMILES) | IC50 [1] [µM] | IC50 [2] [µM]
O=C1/C(=C/c2ccc(-c3ccccc3)o2)Sc2ccccc21 [#25, (Z)-2-((5-phenylfuran-2-yl)methylene)benzo[b]thiophen-3(2H)-one] | ≥ 100 | ≥ 100
CC(C)NC(=O)c1cc(-c2ccc(/C=C3\Oc4ccccc4C3=O)o2)ccc1O [#26] | 1 to 20 | 1 to 20
C/C=C1\CC/C(=C\c2ccc(-c3ccc(O)c(C(=O)O)c3)o2)C1=O [#27] | 1 to 20 | 1 to 20
O=C(O)c1ccc(-c2ccc(/C=C3\Sc4ccccc4C3=O)o2)cc1 [#28] | 1 to 20 | 1 to 20
O=C(Nc1ccccc1)c1cc(F)cc(-c2ccc(/C=C3\Sc4ccccc4C3=O)o2)c1 [#29] | 1 to 20 | 20 to 100
O=C(O)c1cccc(-c2cccc(/C=C3\Sc4ccccc4C3=O)c2)c1 [#30] | 1 to 20 | 1 to 20
O=C(O)c1cccc(-c2ccc(/C=C3\Sc4ccccc4C3=O)o2)c1 [#31] | 1 to 20 | 1 to 20
O=C(O)c1cc(-c2ccc(/C=C3\Sc4ccccc4C3=O)o2)ccc1F [#32] | 1 to 20 | 20 to 100
COc1cccc(NC(=O)c2cccc(-c3ccc(/C=C4\Sc5ccccc5C4=O)o3)c2)c1 [#33] | 1 to 20 | 20 to 100
O=C(O)c1cccc(-c2ccc(/C=C3\Cc4ccccc4C3=O)o2)c1 [#34] | 1 to 20 | 20 to 100
COc1ccc(-c2ccc(/C=C3\Sc4ccccc4C3=O)o2)cc1C(=O)O [#35] | 1 to 20 | 20 to 100
O=C1CCC/C1=C\c1ccc(-c2cccc(C(=O)O)c2)o1 [#36] | 20 to 100 | 20 to 100
O=C(/C=C/c1ccc(-c2ccc(O)c(C(=O)O)c2)o1)c1ccccc1 [#37] | 20 to 100 | 20 to 100
O=C(Nc1ccc2ccccc2n1)c1cccc(-c2ccc(/C=C3\Sc4ccccc4C3=O)o2)c1 [#38] | 20 to 100 | ≥ 100
O=C1NC(=O)/C(=C/c2ccc(-c3cccc(C(=O)Nc4ccccc4)c3)o2)S1 [#39] | 20 to 100 | 20 to 100
O=C1/C(=C/c2ccc(-c3ccc(O)c(C(=O)O)c3)o2)CC/C1=C\c1ccc(-c2ccc(O)c(C(=O)O)c2)o1 [#44] | ≤ 1 | 1 to 20
O=C1/C(=C/c2ccc(O)c(C(=O)O)c2)CC/C1=C\c1ccc(O)c(C(=O)O)c1 [#47] | 1 to 20 | 1 to 20
O=C(/C=C/c1ccc(Br)o1)c1cccc(C(=O)/C=C/c2ccc(Br)o2)c1 [#48] | 20 to 100 | 20 to 100
